Assay results published in article PMC5665932, “A novel peptide that improves metabolic parameters without adverse central nervous system effects” (Scientific Reports, 2017).

Experiments:
UCP1 = UCP1 expression in 3T3-L1 differentiated adipocytes (Western blot); assay type: cell-based; conditions: for expression of UCP1 in 3T3-L1 adipose cells: 24 h treatment
Protocol: 3T3-L1 pre-adipocytes (American Type Culture Collection, Rockville, MD, USA) were cultured in complete medium comprising of DMEM (Dulbecco’s Modified Eagle Medium), containing 10% fetal bovine serum (Life Technologies, Carlsbad, CA, USA), 0.11 mg/mL pyruvate, 0.025 g/L penicillin (Sigma-Aldrich, Saint Louis, MO, USA) and 0.1 g/L streptomycin (Life Technologies, Carlsbad, CA, USA) at 37 °C and 5% CO2. For the experiments analyzing UCP1 expression, 3T3-L1 cells were seeded in 12-well plates at a confluence of 10 × 10^4 cells/mL/well. One day later, cells were differentiated using normal culture medium supplemented with 500 μM isobutylmethylxanthine (Sigma, St. Louis, MO, USA), 1 μM dexamethasone (Sigma, St. Louis, MO, USA), and 0.85 μg/mL bovine insulin (Sigma, St. Louis, MO, USA). After three days, the differentiation medium was changed to normal culture medium supplemented with 0.85 μg/mL bovine insulin. The fresh medium was renewed every 2 days. After 12 days of differentiation, cells were exposed for 24 h with either 5 µM rosiglitazone (RSG, Sigma, St. Louis, MO, USA), HP or Pep19 at different concentrations or with vehicle (normal culture medium plus protease inhibitor cocktail (Roche, Germany). Subsequent experiments were performed after preincubation for 2 min with and in the absence of either 5 µM rosiglitazone, 1 µM […], 1 µM AM251, 1 µM HP or vehicle (normal culture medium plus protease inhibitor cocktail (Roche, Germany) with subsequent addition of 1 µM Pep19 in medium. For Western-blot assays, cells were washed twice with ice-cold PBS, the supernatant was removed, and cells were lysed with 40 µL Laemmli buffer, transfered to tubes, sonicated and heated 95 °C during 5 min. Samples were kept at −20 °C till use. Before using, samples were thawed on ice, centrifuged, and proteins were separated on a 12% SDS-PAGE, followed by transfer to PVDF membranes (Merck Millipore, Darmstadt, Germany). […] Bands were visualized with Super-Signal West Pico Chemiluminescent substrate (Thermo Scientific) and quantified using ImageJ 1.49.

DIO Wistar rats [1] = test: Diet-induced obesity model: body weight, food intake, adipose tissue masses, adiposity index; assay type: in vivo; conditions: oral by gavage, 100 µg/Kg, mean ± SEM
Protocol: (§1) For the diet-induced obesity (DIO) model, male Wistar rats received instead of water a 20% sucrose solution for 13 consecutive weeks. All animals including controls received food ad libitum. Pep19 was administrated orally by gavages. After 13 weeks of treatment all rats were sacrificed by decapitation (after overnight fasting). Blood from the trunk was collected into tubes without anticoagulants and immediately centrifuged (3000 x g for 15 min at 4 °C), and serum was stored at −20 °C. Blood serum was used for all biochemical determinations. The adipose tissues masses were used to calculate the adiposity index (the percentage of the sum of all white adipose tissue pads in relation to total body weight).

DIO Wistar rats [2] = test: Diet-induced obesity model: serum/blood biochemical determinations; assay type: in vivo; conditions: oral by gavage, 100 µg/Kg, mean ± SEM
Protocol: as §1
Serum cholesterol and triglycerides were quantified enzymatically using commercial kits from Labtest Diagnóstica (Triglicerides Liquiform andLiquiform, Lagoa Santa, MG, Brazil). Insulin levels were determined using specific rat radioimmunoassay kits (Millipore Corporation, Billerica, MA, USA). Blood glucose concentration was measured by a glucometer (Advantage, Roche Diagnostics Corporation, Indianapolis, USA).

Male Wistar rats = test: Forced swim test; assay type: in vivo; conditions: first 5 min of the swim test, n = 6/group (Pep19), n = 8–10/group (rimonabant)
Protocol: The forced swim test was based on previous designs. Male Wistar rats were placed in a cylindrical plexiglass tank (50 cm high and 30 cm diameter) filled with water (19 °C) up to a level of 25 cm from the bottom. The animal’s behavior during the first 5 min of the swim test was scored by a trained observer and the following measures were taken: (1) time spent swimming, defined as movements of all four limbs, swimming around the tank or diving and (2) time spent floating, defined as the time the animal remained immobile with only occasional slight movements to keep the body balanced and the nose above the water.

C57BL/6J mice = test: Tetrad cannabinoid tests (catalepsy, tail temperature, locomotor activity, hot plate); assay type: in vivo; conditions: n = 6/group
Protocol: C57BL/6J mice were treated i.p. with Pep19 (0.1 or 1 mg/kg), the CB1R agonist WIN55,212-2 (5 mg/kg) or vehicle (n = 6 per group) and evaluated in the tetrad cannabinoid tests. Another group of animals received Pep19 (0.1 or 1 mg/kg) or saline i.p. for 10 days, once a day. In the last day of treatment the animals were subjected to the tetrad cannabinoid tests 30 minutes after the i.p. administration. The CB1 agonist WIN55,212-2 (5 mg/kg) was administrated i.p. 30 minutes before the experiments as a positive control (n = 6 per group).
It was assayed by the bar test[40], 30 min after drug administration. Briefly, each mouse was placed on a bar oriented parallel to and approximately 4 cm above the bench surface. Cataleptic behavior was defined as the time the animal remained motionless holding on to the bar; cutoff = 300 s[41].
It was determined by using a thermal probe (Thermocom®, Nashua, NH 03062, EUA) positioned 50 cm of the animal. The mean of five pictures of five different tail regions was compared between a basal evaluation and another observation 35 min after drug administration.
It was determined by an open field test, in which a mouse was placed in a circular cage (40 cm diameter), 37 min after drug administration. The distance traveled by the animal was recorded for 10 min by the software ANY-MAZE (Stoelting).
The mouse was placed on a heated plate at 56 °C. An experimenter measured the time it took for the mouse to lick the paws or jump off of the hot plate; cutoff = 30 s[42]. The variation between a basal evaluation and another one taken 45 min after drug administration was defined as the result.

c-Fos = test: Mice brain c-Fos protein immunohistochemistry; assay type: in vivo; conditions: 1 mg/kg administrated orally, two hours post administration, C57BL/6J mice, vs vehicle (water), n = 3/group
Protocol: Mice C57BL/6J (25 ± 2 g; n = 3 per group) were assigned randomly to receive gavage (v.o.) of either vehicle (water), or 1 mg/kg body weight HP or 1 mg/kg Pep19. All solutions were prepared minutes before use. Two hours post administrations mice were deeply anaesthetized with ketamine and xylazine (i.p.; […], respectively) and perfused transcardially with heparinised saline (5000 UI/kg) in phosphate buffer (PB 0.1 M, pH 7.3) followed by 4% paraformaldehyde in PB 0.1 M. The brains were post fixed and kept in 30% sucrose in 0.1 M PB to cryoprotect the tissue. […]
The regions of interest were identified based on a stereotaxic atlas[45]: arcuate hypothalamic nucleus (Arc), ventromedial hypothalamic nucleus (VMN), periaqueductal grey (PAG), orbitofrontal cortex (VO), accumbens nucleus (Acb). The corresponding images were captured using a Nikon Eclipse E800, camera DC-F1 with Nis Element program. cFos positive cells per section were counted manually using ImageJ (NIH/USA). Results are are expressed as the means ± standard error of the mean (SEM) of c-Fos immunoreactive cells per section in each brain area (5 sections/brain/structure). […] Data were statistically analyzed with GraphPad Prism software (GraphPad Software Inc, San Diego, CA, USA).

## Cc1c(C(=O)NN2CCCCC2)nn(-c2ccc(Cl)cc2Cl)c1-c1ccc(I)cc1 [AM251]
UCP1; 1 µM, preincubation 2 min, then Pep19 1 µM for 24 h, 3T3-L1 adipocyte cells
  effect on UCP1 activation by Pep19: prevented UCP1 activation by Pep19

## CN(CCOc1ccc(CC2SC(=O)NC2=O)cc1)c1ccccn1 (stereo not shown) [RSG, Rosiglitazone]
UCP1; 5 µM, positive control
  expression of UCP1 in 3T3-L1 adipose cells: increased the expression of UCP1

## Cc1c(C(=O)NN2CCCCC2)nn(-c2ccc(Cl)cc2Cl)c1-c1ccc(Cl)cc1 [Rimonabant]
DIO Wistar rats [1]
  Body weight (% of control day zero): 111 ± 1.0 (n = 10) % of control day zero
  Gonadal Adipose Tissue weight: 1.75 ± 0.1 (n = 10) g
  Mesenteric Adipose Tissue weight: 0.86 ± 0.1 (n = 9) g
  Retroperitoneal Adipose Tissue weight: 2.10 ± 0.1 (n = 10) g
DIO Wistar rats [1]; percentage of the sum of all white adipose tissue pads in relation to total body weight
  Adiposity Index (total/100 g): 5.85 ± 0.2 (n = 9) total/100 g
DIO Wistar rats [2]; glucometer
  Glucose level: 118.3 ± 4.2(n = 9) mg/dl
DIO Wistar rats [2]; serum
  Cholesterol (% of control day zero): 98.51 ± 5.8 (n = 9) % of control day zero
  Triacylglycerol (% of control day zero): 112 ± 7.7 (n = 10) % of control day zero
DIO Wistar rats [2]; serum, radioimmunoassay
  Insulin: 2.71 ± 0.8 (n = 5) ng/mL
Male Wistar rats
  forced swim test: time spent swimming and time spent floating: affected both time spent swimming (empty bars) and time spent floating

## Cc1c(C(=O)c2cccc3ccccc23)c2cccc3c2n1[C@H](CN1CCOCC1)CO3 [WIN55,212–2]
C57BL/6J mice; 5 mg/kg i.p. 30 minutes before the experiments, P<0.05
  cannabinoid tetrad, positive control of the chronic experiment: affected all parameters evaluated
C57BL/6J mice; 5 mg/kg i.p., positive control, p < 0.05
  cannabinoid tetrad (catalepsy, hot plate, locomotor activity, tail temperature): affected all the parameters evaluated

## PVNFKFLSH [HP, Hemopressin, …, inverse agonist of cannabinoid type 1 receptors]
UCP1; 0.1–10 µM, GAPDH loading control
  expression of UCP1 in 3T3-L1 adipose cells: increased the expression of UCP1
c-Fos
  number of cFos positive cells in brain areas (Arc, VMN, PAG, VO, Acb): increased the number of cFos positive cells in Arc, VMN and PAG
